Results reported in patent EP4610269A1, “UROKINASE PLASMINOGEN ACTIVATOR SURFACE RECEPTOR (UPAR) LIGANDS FOR DIAGNOSTIC OR THERAPEUTIC USE” (3B Pharmaceuticals GmbH, priority 2024, dated 2025).
Where two headings read alike, the source gives them in different places. *1 amine or outer side, *2 acyl side, *3 side chain or, on linkers, in order; H or OH if unused. Where a SMILES comes first, the peptide text is derived from it. Bridges are numbered along the chain shown (N, C = ends). [ ]: non-standard residue; d: D form. The star is where a group is joined. GdDOTA = Gd(III) DOTA conjugate, O=C([O-])CN1CCN(CC(=O)[O-])CCN(CC(=O)*)CCN(CC(=O)[O-])CC1.[Gd+3]; DOTA(Lu) = O=C1CN2CCN3CCN(CC(=O)*)CCN(CC2)CC(=O)[O][Lu]([O]1)[O]C(=O)C3; DOTA = O=C(O)CN1CCN(CC(=O)O)CCN(CC(=O)*)CCN(CC(=O)O)CC1; Phe(4-guanidino) = N=C(N)Nc1ccc(C[C@H](N)C(=O)O)cc1; Hyp = O=C(O)[C@@H]1C[C@@H](O)CN1; hArg = N=C(N)NCCCC[C@H](N)C(=O)O; Gly(cBu) = N[C@H](C(=O)O)C1CCC1; Pentanoyl(4-Me) = CC(C)CCC(=O)*; Cit = NC(=O)NCCC[C@H](N)C(=O)O; Propanoyl(3-OEt) = CCOCCC(=O)*; Cysteamide = C(CS[*:3])N[*:1]; αMeL = CC(C)C[C@](C)(N)C(=O)O; NMeS = CN[C@@H](CO)C(=O)O; hCys = N[C@@H](CCS)C(=O)O; Ac6c = NC1(C(=O)O)CCCCC1; Nle = CCCC[C@H](N)C(=O)O; Nva = CCC[C@H](N)C(=O)O; Pentanoyl = CCCCC(=O)*; CH2 = C([*:1])[*:2]

Experiments:
[1] = molecular target: T1, uPAR-expressing HEC-265 human endometrial adenocarcinoma cells (Homo sapiens, UniProt Q03405); assay: Competitive FACS binding assay; settings: pIC50 category of FACS binding
T1 construct: Cell surface uPAR-expressing HEC-265 human endometrial adenocarcinoma cells; host or cells: HEC-265
T1 sequence (Q03405 23-335): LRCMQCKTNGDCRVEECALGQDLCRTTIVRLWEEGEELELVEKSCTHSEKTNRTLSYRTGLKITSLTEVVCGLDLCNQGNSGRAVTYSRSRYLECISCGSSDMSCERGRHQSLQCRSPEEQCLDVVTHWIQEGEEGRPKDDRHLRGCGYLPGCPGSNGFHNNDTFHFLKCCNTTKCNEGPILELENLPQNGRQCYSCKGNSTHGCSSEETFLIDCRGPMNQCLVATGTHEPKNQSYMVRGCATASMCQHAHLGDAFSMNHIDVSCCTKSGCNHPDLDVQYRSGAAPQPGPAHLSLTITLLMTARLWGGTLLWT
Procedure, shortened: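 Competitive displacement of a 10 nM biotinylated peptide from HEC-265 cells (1 h, 4 °C, PBS/1% BSA), detected via APC-streptavidin by flow cytometry. pIC50 from four-parameter logistic fit of median fluorescence versus concentration.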

human uPAR (uPAR-Fc) = molecular target: T2, human uPAR (uPAR-Fc) (Homo sapiens, UniProt Q03405); assay: Surface plasmon resonance (SPR) assay, single cycle kinetics; type: binding; settings: pKD category for uPAR SPR activity assay, uPAR-Fc on Protein A-Chip, 25°C; for Kd: read-out: pKD CAT (converted)
T2 construct: comprising amino acids Leu23-Arg303 according to UniProt entry Q03405.1; purchased R&D Systems 10378-UK-100
T2 sequence (Q03405 23-303): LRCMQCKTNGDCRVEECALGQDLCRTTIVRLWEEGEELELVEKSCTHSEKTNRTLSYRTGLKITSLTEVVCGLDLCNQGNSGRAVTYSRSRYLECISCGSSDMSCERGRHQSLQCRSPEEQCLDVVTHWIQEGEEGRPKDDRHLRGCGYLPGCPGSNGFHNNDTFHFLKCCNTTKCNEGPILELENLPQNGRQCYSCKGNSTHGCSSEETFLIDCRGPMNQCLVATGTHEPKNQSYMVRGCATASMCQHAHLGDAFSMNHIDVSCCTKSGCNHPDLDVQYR
Procedure, shortened: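 uPAR-Fc (Leu23-Arg303 extracellular domains, human IgG1 Fc) captured on Protein A chip to ~2000 RU; single-cycle kinetics at 25°C in HEPES running buffer pH 7.4 with 0.1% DMSO. KD from double-referenced sensorgrams fitted to 1:1 Langmuir model, reported as pKD.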

Row | Compound | IC50 [1] | Kd (human uPAR (uPAR-Fc)) | further results
1 | CCCCC(=O)N[C@H]1CSSC[C@@H](C(N)=O)NC(=O)[C@H](CCC)NC(=O)[C@H]([C@@H](C)CC)NC(=O)[C@H](CO)N(C)C(=O)[C@@H]2CCCN2C(=O)[C@H](Cc2ccccc2)NC(=O)[C@H](Cc2ccc(O)cc2)NC(=O)[C@H](CCCCNC(=O)CN2CCN(CC(=O)O)CCN(CC(=O)O)CCN(CC(=O)O)CC2)NC(=O)[C@H](CCCNC(N)=O)NC1=O [UPAR-277, Pent-[Cys-Cit-Lys(DOTA)-Tyr-Phe-Pro-Nms-Ile-Nva-Cys]-NH2] (Pentanoyl-C[Cit]K(DOTA)YFP[NMeS]I[Nva]C-NH2; disulfide 1-10) | 39.8 to 100 nM | 10 to 100 nM | –
2 | Pent-[Cys-Cit-Lys(InDOTA)-Tyr-Pcf-Pro-Hyp-Ile-Nva-Cys]-NH2 [UPAR-355] | – | – | pIC50 CAT [1]: A (pIC50 values ≥8.0); pKD CAT (human uPAR (uPAR-Fc); single cycle kinetics): A (pKD values ≥ 8.8)
3 | CCCCC(=O)N[C@H]1CSSC[C@@H](C(N)=O)NC(=O)[C@](C)(CC(C)C)NC(=O)[C@H]([C@@H](C)CC)NC(=O)[C@@H]2C[C@@H](O)CN2C(=O)[C@@H]2CCCN2C(=O)[C@H](Cc2ccccc2)NC(=O)[C@H](Cc2ccc(O)cc2)NC(=O)[C@H](CCC(N)=O)NC(=O)[C@H](CCCNC(=N)N)NC1=O [UPAR-156, Pent-[Cys-Arg-Gln-Tyr-Phe-Pro-Hyp-Ile-Aml-Cys]-NH2] (Pentanoyl-CRQYFP[Hyp]I[αMeL]C-NH2; disulfide 1-10) | 12.6 to 31.6 nM | 1.58 to 10 nM | –
4 | CC[C@H](C)[C@@H]1NC(=O)[C@H](CCCCNC(=O)CN2CCN(CC(=O)O)CCN(CC(=O)O)CCN(CC(=O)O)CC2)NC(=O)[C@@H]2CCCN2C(=O)[C@H](Cc2ccccc2)NC(=O)[C@H](Cc2ccc(O)cc2)NC(=O)[C@H](CCC(N)=O)NC(=O)[C@H](CCCNC(N)=O)NC(=O)[C@@H](NC(=O)CCC(C)C)CSSC[C@@H](C(N)=O)NC(=O)[C@H](CC(C)C)NC1=O [UPAR-145, iHex-[Cys-Cit-Gln-Tyr-Phe-Pro-Lys(DOTA)-Ile-Leu-Cys]-NH2] ({Pentanoyl(4-Me)}-C[Cit]QYFPK(DOTA)ILC-NH2; disulfide 1-10) | ≤ 10 nM | < 1.58 nM | –
5 | CCCCC(=O)N[C@H]1CSSC[C@@H](C(N)=O)NC(=O)[C@H](CCC)NC(=O)[C@H]([C@@H](C)CC)NC(=O)[C@@H]2C[C@@H](O)CN2C(=O)[C@@H]2CCCN2C(=O)[C@H](Cc2ccccc2)NC(=O)[C@H](Cc2ccc(NC(=N)N)cc2)NC(=O)[C@H](CCCCNC(=O)CN2CCN(CC(=O)O)CCN(CC(=O)O)CCN(CC(=O)O)CC2)NC(=O)[C@H](CCCNC(N)=O)NC1=O [UPAR-149, Pent-[Cys-Cit-Lys(DOTA)-Guf-Phe-Pro-Hyp-Ile-Nva-Cys]-NH2] (Pentanoyl-C[Cit]K(DOTA)[Phe(4-guanidino)]FP[Hyp]I[Nva]C-NH2; disulfide 1-10) | ≤ 10 nM | < 1.58 nM | –
6 | CCCCC(=O)N[C@H]1CSSC[C@@H](C(N)=O)NC(=O)[C@H](CCC)NC(=O)[C@H]([C@@H](C)CC)NC(=O)[C@@H]2C[C@@H](O)CN2C(=O)[C@@H]2CCCN2C(=O)[C@H](Cc2ccccc2)NC(=O)[C@H](CC(C)C)NC(=O)[C@H](CCC(N)=O)NC(=O)[C@H](CCCNC(=N)N)NC1=O [UPAR-195, Pent-[Cys-Arg-Gln-Leu-Phe-Pro-Hyp-Ile-Nva-Cys]-NH2] (Pentanoyl-CRQLFP[Hyp]I[Nva]C-NH2; disulfide 1-10) | 12.6 to 31.6 nM | 1.58 to 10 nM | –
7 | CCCCC(=O)N[C@H]1CSSCCNC(=O)[C@H](CCC)NC(=O)[C@H]([C@@H](C)CC)NC(=O)[C@@H]2C[C@@H](O)CN2C(=O)[C@@H]2CCCN2C(=O)[C@H](Cc2ccccc2)NC(=O)[C@H](Cc2ccc(O)cc2)NC(=O)[C@H](CCC(N)=O)NC(=O)[C@H](CCCNC(=N)N)NC1=O [UPAR-481, Pent-[Cys-Arg-Gln-Tyr-Phe-Pro-Hyp-Ile-Nva-AET]] (Pentanoyl-CRQYFP[Hyp]I[Nva]-Cysteamide; disulfide 1-C) | ≤ 10 nM | – | Kd (human uPAR (uPAR-Fc); single cycle kinetics): < 1.58 nM
8 | CCC[C@@H]1NC(=O)[C@H]([C@@H](C)CC)NC(=O)[C@@H]2C[C@@H](O)CN2C(=O)[C@@H]2CCCN2C(=O)[C@H](Cc2ccccc2)NC(=O)[C@H](Cc2ccc(O)cc2)NC(=O)[C@H](CCC(N)=O)NC(=O)[C@H](CCCNC(=N)N)NC(=O)[C@@H](NC(=O)C2(NC(C)=O)CCCCC2)CSSC[C@@H](C(N)=O)NC1=O [UPAR-482, Ac-Egz-[Cys-Arg-Gln-Tyr-Phe-Pro-Hyp-Ile-Nva-Cys]-NH2] (Ac-[Ac6c]CRQYFP[Hyp]I[Nva]C-NH2; disulfide 2-11) | ≤ 10 nM | – | Kd (human uPAR (uPAR-Fc); single cycle kinetics): < 1.58 nM
9 | CCCCC(=O)N[C@H]1CSSC[C@@H](C(N)=O)NC(=O)[C@H](CCC)NC(=O)[C@H]([C@@H](C)CC)NC(=O)[C@@H]2C[C@@H](O)CN2C(=O)[C@H](Cc2ccccc2)NC(=O)[C@H](Cc2ccccc2)NC(=O)[C@H](Cc2ccc(O)cc2)NC(=O)[C@H](CCC(N)=O)NC(=O)[C@H](CCCNC(=N)N)NC1=O [UPAR-400, Pent-[Cys-Arg-Gln-Tyr-Phe-Phe-Hyp-Ile-Nva-Cys]-NH2] (Pentanoyl-CRQYFF[Hyp]I[Nva]C-NH2; disulfide 1-10) | ≤ 10 nM | – | Kd (human uPAR (uPAR-Fc); single cycle kinetics): 1.58 to 10 nM
10 | CCCCC(=O)N[C@H]1CSCSC[C@@H](C(N)=O)NC(=O)[C@H](CCC)NC(=O)[C@H]([C@@H](C)CC)NC(=O)[C@@H]2C[C@@H](O)CN2C(=O)[C@@H]2CCCN2C(=O)[C@H](Cc2ccccc2)NC(=O)[C@H](Cc2ccc(O)cc2)NC(=O)[C@H](CCC(N)=O)NC(=O)[C@H](CCCNC(N)=O)NC1=O [UPAR-215, Pent-[Smc-Cit-Gln-Tyr-Phe-Pro-Hyp-Ile-Nva-Cys]-NH2] (Pentanoyl-C[Cit]QYFP[Hyp]I[Nva]C-NH2; linker 1-10 via CH2) | 12.6 to 31.6 nM | 1.58 to 10 nM | –
11 | CCCC[C@@H]1NC(=O)[C@H](CCCNC(=N)N)NC(=O)[C@@H](NC(=O)[C@H](CC(C)C)NC(=O)[C@H](CC(=O)O)NC(C)=O)CSSC[C@@H](C(N)=O)NC(=O)[C@H](CC(C)C)NC(=O)[C@H]([C@@H](C)CC)NC(=O)[C@H](C)NC(=O)[C@@H]2CCCN2C(=O)[C@@H](Cc2ccccc2)NC(=O)[C@H](Cc2ccc(O)cc2)NC1=O [UPAR-230, Ac-Asp-Leu-[Cys-Arg-Nle-Tyr-phe-Pro-Ala-Ile-Leu-Cys]-NH2] (Ac-DLCR[Nle]Y[dF]PAILC-NH2; disulfide 3-12) | ≥ 126 nM | > 100 nM | –
12 | CCOCCC(=O)N[C@H]1CSSC[C@@H](C(N)=O)NC(=O)[C@H](CC(C)C)NC(=O)[C@H]([C@@H](C)CC)NC(=O)[C@@H](C)NC(=O)[C@@H]2CCCN2C(=O)[C@H](Cc2ccccc2)NC(=O)[C@H](Cc2ccc(O)cc2)NC(=O)[C@H](CCC(N)=O)NC(=O)[C@H](CCCNC(N)=O)NC1=O [UPAR-172, EtOPr-[Cys-Cit-Gln-Tyr-Phe-Pro-ala-Ile-Leu-Cys]-NH2] ({Propanoyl(3-OEt)}-C[Cit]QYFP[dA]ILC-NH2; disulfide 1-10) | ≤ 10 nM | 1.58 to 10 nM | –
13 | CCCC[C@@H]1NC(=O)[C@H]([C@@H](C)CC)NC(=O)[C@@H](C)NC(=O)[C@@H]2CCCN2C(=O)[C@H](Cc2ccccc2)NC(=O)[C@H](Cc2ccc(O)cc2)NC(=O)[C@H](CCC(N)=O)NC(=O)[C@H](CCCNC(N)=O)NC(=O)[C@@H](NC(=O)CCC(C)C)CSSC[C@@H](C(N)=O)NC1=O [UPAR-345, iHex-[Cys-Cit-Gln-Tyr-Phe-Pro-ala-Ile-Nle-Cys]-NH2] ({Pentanoyl(4-Me)}-C[Cit]QYFP[dA]I[Nle]C-NH2; disulfide 1-10) | ≤ 10 nM | – | Kd (human uPAR (uPAR-Fc); single cycle kinetics): 1.58 to 10 nM
14 | Pent-[Cys-Har-Lys(GdDOTA)-Tyr-Phe-Pro-Hyp-Ile-Nva-Cys]-NH2 (Pentanoyl-C[hArg]K(GdDOTA)YFP[Hyp]I[Nva]C-NH2; disulfide 1-10; not fully specified; also: Gd(III) complexed by DOTA) [UPAR-376] | – | – | pIC50 CAT [1]: A (pIC50 values ≥8.0); pKD CAT (human uPAR (uPAR-Fc); single cycle kinetics): A (pKD values ≥ 8.8)
15 | Pent-[Cys-Asn-Lys(LuDOTA)-Tyr-Phe-Pro-Hyp-Ile-Nva-Cys]-NH2 (Pentanoyl-CNK(DOTA(Lu))YFP[Hyp]I[Nva]C-NH2; disulfide 1-10; not fully specified; also: Lu(III) complexed by DOTA) [UPAR-335] | – | – | pIC50 CAT [1]: A (pIC50 values ≥8.0); pKD CAT (human uPAR (uPAR-Fc)): A (pKD values ≥ 8.8)
16 | CCCCC(=O)N[C@H]1CSSC[C@@H](C(N)=O)NC(=O)[C@H](C2CCC2)NC(=O)[C@H]([C@@H](C)CC)NC(=O)[C@@H]2C[C@@H](O)CN2C(=O)[C@@H]2CCCN2C(=O)[C@H](Cc2ccccc2)NC(=O)[C@H](Cc2ccc(O)cc2)NC(=O)[C@H](CCC(N)=O)NC(=O)[C@H](CCCNC(=N)N)NC1=O [UPAR-411, Pent-[Cys-Arg-Gln-Tyr-Phe-Pro-Hyp-Ile-Cbg-Cys]-NH2] (Pentanoyl-CRQYFP[Hyp]I[Gly(cBu)]C-NH2; disulfide 1-10) | ≤ 10 nM | – | Kd (human uPAR (uPAR-Fc); single cycle kinetics): < 1.58 nM
17 | CCCCC(=O)N[C@H]1CSSCC[C@@H](C(N)=O)NC(=O)[C@H](CCC)NC(=O)[C@H]([C@@H](C)CC)NC(=O)[C@@H]2C[C@@H](O)CN2C(=O)[C@@H]2CCCN2C(=O)[C@H](Cc2ccccc2)NC(=O)[C@H](Cc2ccc(O)cc2)NC(=O)[C@H](CCC(N)=O)NC(=O)[C@H](CCCNC(=N)N)NC1=O [UPAR-213, Pent-[Cys-Arg-Gln-Tyr-Phe-Pro-Hyp-Ile-Nva-Hcy]-NH2] (Pentanoyl-CRQYFP[Hyp]I[Nva][hCys]-NH2; disulfide 1-10) | ≤ 10 nM | 1.58 to 10 nM | –
